Test results as given in patent US20220089575A1, “FARNESOID X RECEPTOR AGONISTS AND USES THEREOF” (Metacrine, Inc., priority 2017, published 2022).

target: T1, hFXR (Homo sapiens, UniProt Q96RI1); assay: In Vitro FXR Assay (TK): TK-ECRE-luc reporter in transfected CV-1 cells; assay type: cell-based; settings: 18 hrs, luminescence, maximum efficacy of <25% of the Fexarmine control classified as '+'
T1 construct: expressed in transfected cells; host or cells: CV-1 cells
T1 sequence (Q96RI1 1-486): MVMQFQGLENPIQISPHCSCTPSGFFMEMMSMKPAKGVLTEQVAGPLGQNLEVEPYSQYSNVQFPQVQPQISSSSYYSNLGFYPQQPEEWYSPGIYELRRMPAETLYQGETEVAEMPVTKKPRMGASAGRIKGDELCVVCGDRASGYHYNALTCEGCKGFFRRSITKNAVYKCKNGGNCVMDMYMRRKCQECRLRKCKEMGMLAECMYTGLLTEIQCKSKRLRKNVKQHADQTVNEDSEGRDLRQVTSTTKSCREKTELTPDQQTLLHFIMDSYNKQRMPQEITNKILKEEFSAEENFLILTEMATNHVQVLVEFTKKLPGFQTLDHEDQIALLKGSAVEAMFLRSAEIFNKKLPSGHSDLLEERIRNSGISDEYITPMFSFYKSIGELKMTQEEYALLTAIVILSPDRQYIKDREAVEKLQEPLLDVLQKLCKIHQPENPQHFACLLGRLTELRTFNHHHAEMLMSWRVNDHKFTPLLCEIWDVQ
T1 sequence (P19793 1-462 partner): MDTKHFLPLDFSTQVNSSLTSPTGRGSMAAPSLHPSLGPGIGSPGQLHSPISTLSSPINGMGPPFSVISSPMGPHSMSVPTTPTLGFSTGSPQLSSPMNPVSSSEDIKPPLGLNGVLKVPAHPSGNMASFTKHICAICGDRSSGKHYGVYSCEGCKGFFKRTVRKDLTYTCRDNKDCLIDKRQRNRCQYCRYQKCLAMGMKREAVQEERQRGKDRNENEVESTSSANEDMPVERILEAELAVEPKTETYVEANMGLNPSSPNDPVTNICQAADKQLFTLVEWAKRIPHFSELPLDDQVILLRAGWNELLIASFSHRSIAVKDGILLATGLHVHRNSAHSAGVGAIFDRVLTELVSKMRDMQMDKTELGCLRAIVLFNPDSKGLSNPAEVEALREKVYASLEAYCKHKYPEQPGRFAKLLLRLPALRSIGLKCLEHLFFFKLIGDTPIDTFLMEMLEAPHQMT
Outline: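 Luciferase luminescence read-out from lysed CV-1 cells transiently co-expressing hFXR and hRXR with a TK-ECRE-luc reporter (pCMX-YFP co-transfected). Compound exposure lasted 18 h at 37 °C, 5% CO2, in medium containing charcoal super-stripped serum.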

EC50, ≤ 250 nM:
CCOC(=O)C[C@H]1CC[C@H](C(=O)N(C[C@H]2CC[C@H](c3ccc(OC)c(C)n3)CC2)c2cc(-c3cnn(C4CC4)c3)ccn2)CC1 [Compound 18.18, Ethyl 2-(trans-4-((4-(1-cyclopropyl-1H-pyrazol-4-yl)pyridin-2-yl)((trans-4-(5-methoxy-6-methylpyridin-2-yl)cyclohexyl)methyl)carbamoyl)cyclohexyl)acetate]
COc1ccc([C@H]2CC[C@H](CN(c3cccc(-c4cnn(C5CC5)c4)c3)C(=O)[C@H]3CC[C@H](C(=O)OC)CC3)CC2)nc1C [Compound 18.19, trans-Methyl 4-((3-(1-cyclopropyl-1H-pyrazol-4-yl)phenyl)((trans-4-(5-methoxy-6-methylpyridin-2-yl)cyclohexyl)methyl)carbamoyl) cyclohexanecarboxylate]
CCOC(=O)C[C@H]1CC[C@H](C(=O)N(C[C@H]2CC[C@H](c3ccc(OC)c(C)n3)CC2)c2cc(-c3cnn(C(C)C)c3)ccn2)CC1 [Compound 18.20, Ethyl 2-(trans-4-((4-(1-isopropyl-1H-pyrazol-4-yl)pyridin-2-yl)((trans-4-(5-methoxy-6-methylpyridin-2-yl)cyclohexyl)methyl)carbamoyl)cyclohexyl)acetate]
CCOC(=O)C[C@H]1CC[C@H](C(=O)N(C[C@H]2CC[C@H](c3ccc(OC)c(C#N)c3)CC2)c2cc(-c3cnn(C(C)C)c3)ccn2)CC1 [Compound 18.21, Ethyl 2-(trans-4-(((trans-4-(3-cyano-4-methoxyphenyl)cyclohexyl)methyl)(4-(1-isopropyl-1H-pyrazol-4-yl)pyridin-2-yl)carbamoyl)cyclohexyl)acetate]
CCOC(=O)C[C@H]1CC[C@H](C(=O)N(C[C@H]2CC[C@H](c3ccc(OC)c(C#N)n3)CC2)c2cc(-c3cnn(C(C)C)c3)ccn2)CC1 [Compound 18.22, Ethyl 2-(trans-4-(((trans-4-(6-cyano-5-methoxypyridin-2-yl)cyclohexyl)methyl)(4-(1-isopropyl-1H-pyrazol-4-yl)pyridin-2-yl)carbamoyl)cyclohexyl) acetate]
COc1ccc([C@H]2CC[C@H](CN(c3cc(-c4coc(C5CC5)n4)ccn3)C(=O)[C@H]3CC[C@H](C(=O)OC)CC3)CC2)nc1C [Compound 18.23, trans-Methyl 4-((4-(2-cyclopropyloxazol-4-yl)pyridin-2-yl) ((trans-4-(5-methoxy-6-methylpyridin-2-yl)cyclohexyl)methyl)carbamoyl) cyclohexanecarboxylate]
COc1ccc([C@H]2CC[C@H](CN(c3cccc(-c4coc(C5CC5)n4)c3)C(=O)[C@H]3CC[C@H](C(=O)OC)CC3)CC2)nc1C#N [Compound 18.24, trans-Methyl 4-(((trans-4-(6-cyano-5-methoxypyridin-2-yl)cyclohexyl)methyl)(3-(2-cyclopropyloxazol-4-yl)phenyl)carbamoyl) cyclohexanecarboxylate]
COc1ccc([C@H]2CC[C@H](CN(c3cccc(-c4cnc(C5CC5)s4)c3)C(=O)[C@H]3CC[C@H](CC(=O)O)CC3)CC2)cc1C [Compound 19, 2-(trans-4-((3-(2-Cyclopropylthiazol-5-yl)phenyl)((trans-4-(4-methoxy-3-methylphenyl)cyclohexyl)methyl)carbamoyl)cyclohexyl)acetic acid]
COc1ccc([C@H]2CC[C@H](CN(c3cccc(-c4cnc(C5CC5)s4)c3)C(=O)[C@H]3CC[C@H](CC(=O)O)CC3)CC2)cc1C#N [Compound 20, 2-(trans-4-(((trans-4-(3-Cyano-4-methoxyphenyl)cyclohexyl)methyl)(3-(2-cyclopropylthiazol-5-yl)phenyl)carbamoyl)cyclohexyl)acetic acid]
COc1ccc([C@H]2CC[C@H](CN(c3cccc(-c4cnc(C5CC5)s4)c3)C(=O)[C@H]3CC[C@H](CC(=O)O)CC3)CC2)nc1C#N [Compound 20.01, 2-(trans-4-(((trans-4-(6-Cyano-5-methoxypyridin-2-yl)cyclohexyl)methyl)(3-(2-cyclopropylthiazol-5-yl)phenyl)carbamoyl)cyclohexyl) acetic acid]
COc1ccc([C@H]2CC[C@H](CN(c3cc(-c4cnc(C5CC5)s4)ccn3)C(=O)[C@H]3CC[C@H](CC(=O)O)CC3)CC2)cc1C [Compound 20.02, 2-(trans-4-((4-(2-Cyclopropylthiazol-5-yl)pyridin-2-yl)((trans-4-(4-methoxy-3-methylphenyl)cyclohexyl)methyl)carbamoyl)cyclohexyl)acetic acid]
COc1ccc([C@H]2CC[C@H](CN(c3cccc(-c4cnc(C5CC5)s4)c3)C(=O)[C@H]3CC[C@H](CC(=O)O)CC3)CC2)nc1C [Compound 20.03, 2-(trans-4-((3-(2-Cyclopropylthiazol-5-yl)phenyl)((trans-4-(5-methoxy-6-methylpyridin-2-yl)cyclohexyl)methyl)carbamoyl)cyclohexyl)acetic acid]
COc1ccc([C@H]2CC[C@H](CN(c3cc(-c4cnc(C5CC5)s4)ccn3)C(=O)[C@H]3CC[C@H](CC(=O)O)CC3)CC2)nc1C [Compound 20.04, 2-(trans-4-((4-(2-Cyclopropylthiazol-5-yl)pyridin-2-yl)((trans-4-(5-methoxy-6-methylpyridin-2-yl)cyclohexyl)methyl)carbamoyl)cyclohexyl)acetic acid]
COc1ccc([C@H]2CC[C@H](CN(c3cc(-c4cnc(C5CC5)s4)ccn3)C(=O)[C@H]3CC[C@H](CC(=O)O)CC3)CC2)cc1C#N [Compound 20.05, 2-(trans-4-(((trans-4-(3-Cyano-4-methoxyphenyl)cyclohexyl)methyl)(4-(2-cyclopropylthiazol-5-yl)pyridin-2-yl)carbamoyl)cyclohexyl)acetic acid]
CN(C)c1ccc([C@H]2CC[C@H](CN(c3cccc(-c4cnc(C5CC5)s4)c3)C(=O)[C@H]3CC[C@H](CC(=O)O)CC3)CC2)cn1 [Compound 20.06, 2-(trans-4-((3-(2-Cyclopropylthiazol-5-yl)phenyl)((trans-4-(6-(dimethylamino)pyridin-3-yl)cyclohexyl)methyl)carbamoyl)cyclohexyl)acetic acid]
COc1ccc([C@H]2CC[C@H](CN(c3cccc(-c4cnc(C(C)C)s4)c3)C(=O)[C@H]3CC[C@H](CC(=O)O)CC3)CC2)nc1C [Compound 20.07, 2-(trans-4-((3-(2-Isopropylthiazol-5-yl)phenyl)((trans-4-(5-methoxy-6-methylpyridin-2-yl)cyclohexyl)methyl)carbamoyl)cyclohexyl) acetic acid]
COc1ccc(C23CCC(CN(c4cc(-c5cnn(C6CC6)c5)ccn4)C(=O)[C@H]4CC[C@H](CC(=O)O)CC4)(CC2)CC3)cc1C [Compound 20.08, trans-2-(4-((4-(1-Cyclopropyl-1H-pyrazol-4-yl)pyridin-2-yl)((4-(4-methoxy-3-methylphenyl)bicyclo [2.2.2]octan-1-yl)methyl)carbamoyl)cyclohexyl)acetic acid]
COc1ccc([C@H]2CC[C@H](CN(c3cccc(-c4cnn(C5CC5)c4)c3)C(=O)[C@H]3CC[C@H](CC(=O)O)CC3)CC2)cc1C [Compound 20.09, 2-(trans-4-((3-(1-Cyclopropyl-1H-pyrazol-4-yl)phenyl)((trans-4-(4-methoxy-3-methylphenyl)cyclohexyl)methyl)carbamoyl)cyclohexyl)acetic acid]
COc1ccc([C@H]2CC[C@H](CN(c3cc(-c4cnn(C5CC5)c4)ccn3)C(=O)[C@H]3CC[C@H](CC(=O)O)CC3)CC2)cc1C [Compound 20.10, 2-(trans-4-((4-(1-Cyclopropyl-1H-pyrazol-4-yl)pyridin-2-yl)((trans-4-(4-methoxy-3-methylphenyl)cyclohexyl)methyl)carbamoyl)cyclohexyl)acetic acid]
COc1ccc([C@H]2CC[C@H](CN(c3cccc(-c4cnn(C5CC5)c4)c3)C(=O)[C@H]3CC[C@H](CC(=O)O)CC3)CC2)cc1C#N [Compound 20.11, 2-(trans-4-(((trans-4-(3-Cyano-4-methoxyphenyl)cyclohexyl)methyl)(3-(1-cyclopropyl-1H-pyrazol-4-yl)phenyl)carbamoyl)cyclohexyl)acetic acid]
